# Columns and labels:
# Experiment in all cases: NCI 60 growth inhibition
# Format in all cases: cell-based, human
# IGROV1 = conditions: IGROV1, Ovarian Cancer
# Experimental: (§1) The above triazole derivatives of melampomagnolide B were evaluated for growth inhibitory properties against an NCI panel of 60 human cancer cell lines derived from nine human cancer cell types, grouped into disease sub-panels that represent leukemia, lung, colon, central nervous system (CNS), melanoma, renal, ovary, breast, and prostate cancer cells. Growth inhibitory (GI50) effects were measured as a function of the variation of optical density as a percentage of control.
# OVCAR-4 = conditions: OVCAR-4, Ovarian Cancer
# Experimental: as §1
# SNB-19 = conditions: SNB-19, CNS Cancer
# Experimental: as §1
# SF-295 = conditions: SF-295, CNS Cancer
# Experimental: as §1
# RXF 393 = test system: RXF 393
# Experimental: as §1
# MDA-MB-231/ATCC = conditions: Breast Cancer
# Experimental: as §1
# A498 = conditions: A498, Renal Cancer
# Experimental: as §1
# MDA-MB-468 = conditions: MDA-MB-468, Breast Cancer
# Experimental: as §1
# DU-145 = conditions: DU-145, Prostate Cancer
# Experimental: as §1
# SW-620 = conditions: SW-620, Colon Cancer
# Experimental: as §1
# OVCAR-8 = conditions: OVCAR-8, Ovarian Cancer
# Experimental: as §1
# SK-MEL-2 = conditions: SK-MEL-2, Melanoma
# Experimental: as §1
# OVCAR-5 = conditions: OVCAR-5, Ovarian Cancer
# Experimental: as §1
# SNB-75 = conditions: SNB-75, CNS Cancer
# Experimental: as §1
# SN12C = conditions: Renal Cancer
# Experimental: as §1
# KM12 = conditions: KM12, Colon Cancer
# Experimental: as §1
# ACHN = conditions: Renal Cancer
# Experimental: as §1
# SF-539 = conditions: SF-539, CNS Cancer
# Experimental: as §1
# COLO 205 = conditions: COLO 205, Colon Cancer
# Experimental: as §1
# MALME-3M = conditions: Melanoma
# Experimental: as §1
# CCRF-CEM = conditions: Leukemia
# Experimental: as §1
# HCT-116 = conditions: HCT-116, Colon Cancer
# Experimental: as §1
# K-562 = conditions: K-562, Leukemia
# Experimental: as §1
# NCI-H23 = conditions: NCI-H23, Non-Small Cell Lung Cancer
# Experimental: as §1
# MDA-MB-435 = conditions: MDA-MB-435, Melanoma
# Experimental: as §1
# EKVX = conditions: Non-Small Cell Lung Cancer
# Experimental: as §1
# UO-31 = conditions: UO-31, Renal Cancer
# Experimental: as §1
# TK-10 = conditions: TK-10, Renal Cancer
# Experimental: as §1
# OVCAR-3 = conditions: OVCAR-3, Ovarian Cancer
# Experimental: as §1
# 786-0 = conditions: 786-0, Renal Cancer
# Experimental: as §1
# A549/ATCC = conditions: Non-Small Cell Lung Cancer
# Experimental: as §1
# HCC-2998 = conditions: HCC-2998, Colon Cancer
# Experimental: as §1
# NCI-H460 = conditions: NCI-H460, Non-Small Cell Lung Cancer
# Experimental: as §1
# MCF7 = conditions: MCF7, Breast Cancer
# Experimental: as §1
# NCI-H226 = conditions: NCI-H226, Non-Small Cell Lung Cancer
# Experimental: as §1
# HS 578T = conditions: Breast Cancer
# Experimental: as §1
# MOLT-4 = conditions: MOLT-4, Leukemia
# Experimental: as §1
# PC-3 = conditions: PC-3, Prostate Cancer
# Experimental: as §1
# RPMI-8226 = conditions: RPMI-8226, Leukemia
# Experimental: as §1
compound,measurement,setting,value
C=C1C(=O)O[C@H]2[C@H]1CC/C(Cn1cc(-c3ccc(N)cc3)nn1)=C\CC[C@@]1(C)O[C@@H]21 [JVM 4-58],GI50,IGROV1; Table 3,2.96 µM
same,GI50,OVCAR-4; Table 3,4.9 µM
same,GI50,SNB-19; Table 3,12.7 µM
same,GI50,SF-295; Table 3,12.1 µM
same,GI50,"RXF 393; RXF 393, Renal Cancer, Table 3",1.41 µM
same,GI50,MDA-MB-231/ATCC; Table 3,3.45 µM
same,GI50,A498; Table 3,10.4 µM
same,GI50,MDA-MB-468; Table 3,1.77 µM
same,GI50,DU-145; Table 3,3.65 µM
same,GI50,SW-620; Table 3,2.16 µM
same,GI50,OVCAR-8; Table 3,3.04 µM
same,GI50,SK-MEL-2; Table 3,10.6 µM
same,GI50,OVCAR-5; Table 3,6.43 µM
same,GI50,SNB-75; Table 3,4.98 µM
same,GI50,SN12C; Table 3,3.48 µM
same,GI50,KM12; Table 3,11.4 µM
same,GI50,ACHN; Table 3,2.65 µM
same,GI50,SF-539; Table 3,2.77 µM
same,GI50,COLO 205; Table 3,1.79 µM
same,GI50,MALME-3M; Table 3,2.18 µM
same,GI50,CCRF-CEM; Table 3,2 µM
same,GI50,HCT-116; Table 3,1.55 µM
same,GI50,K-562; Table 3,2.99 µM
same,GI50,NCI-H23; Table 3,2.49 µM
same,GI50,MDA-MB-435; Table 3,3.01 µM
same,GI50,EKVX; Table 3,3.89 µM
same,GI50,UO-31; Table 3,1.87 µM
same,GI50,TK-10; Table 3,2.25 µM
same,GI50,OVCAR-3; Table 3,1.62 µM
same,GI50,786-0; Table 3,1.98 µM
same,GI50,A549/ATCC; Table 3,11.9 µM
same,GI50,HCC-2998; Table 3,3.49 µM
same,GI50,NCI-H460; Table 3,10.4 µM
same,GI50,MCF7; Table 3,2.41 µM
same,GI50,NCI-H226; Table 3,3.34 µM
same,GI50,HS 578T; Table 3,4.46 µM
same,GI50,MOLT-4; Table 3,2.87 µM
same,GI50,PC-3; Table 3,10.1 µM
same,GI50,RPMI-8226; Table 3,2.75 µM
"C=C1C(=O)O[C@H]2[C@H]1CC/C(Cn1cc(CCC)nn1)=C\CC[C@@]1(C)O[C@@H]21 [JVM 4-16, (1aR,7aS,10aS,10bS,E)-1a-Methyl-8-methylene-5((4-propyl-1H-1,2,3-triazol-1-yl)methyl)-2,3,6,7,7a,8,10a,10b-octahydrooxireno[2′,3′:9,10]cyclodeca[1,2-b]furan-9(1aH)-one]",GI50,"IGROV1; Homo sapiens, IGROV-1, Table 2",4.63 µM
same,GI50,"OVCAR-4; Homo sapiens, Table 2",9.46 µM
same,GI50,"SNB-19; Homo sapiens, Table 2",18.8 µM
same,GI50,"SF-295; Homo sapiens, Table 2",18.5 µM
same,GI50,"RXF 393; Homo sapiens, RXF 393, RXF 393, Renal Cancer, Table 2",4.8 µM
same,GI50,"MDA-MB-231/ATCC; Homo sapiens, Table 2",4.22 µM
same,GI50,"A498; Homo sapiens, Table 2",21.5 µM
same,GI50,"MDA-MB-468; Homo sapiens, Table 2",3.65 µM
same,GI50,"DU-145; Homo sapiens, Table 2",4.32 µM
same,GI50,"SW-620; Homo sapiens, Table 2",4.23 µM
same,GI50,"OVCAR-8; Homo sapiens, Table 2",13.5 µM
same,GI50,"SK-MEL-2; Homo sapiens, Table 2",16.3 µM
same,GI50,"OVCAR-5; Homo sapiens, Table 2",14.1 µM
same,GI50,"SNB-75; Homo sapiens, Table 2",18.5 µM
same,GI50,"SN12C; Homo sapiens, Table 2",12.1 µM
same,GI50,"KM12; Homo sapiens, Table 2",17.6 µM
same,GI50,"ACHN; Homo sapiens, Table 2",3.81 µM
same,GI50,"SF-539; Homo sapiens, Table 2",8.87 µM
same,GI50,"COLO 205; Homo sapiens, Table 2",5.22 µM
same,GI50,"MALME-3M; Homo sapiens, Table 2",4.7 µM
same,GI50,"CCRF-CEM; Homo sapiens, Table 2",3 µM
same,GI50,"HCT-116; Homo sapiens, Table 2",3.98 µM
same,GI50,"K-562; Homo sapiens, K562, Table 2",3.96 µM
same,GI50,"NCI-H23; Homo sapiens, Table 2",13.6 µM
same,GI50,"MDA-MB-435; Homo sapiens, Table 2",10.4 µM
same,GI50,"EKVX; Homo sapiens, Table 2",11.5 µM
same,GI50,"UO-31; Homo sapiens, Table 2",11.1 µM
same,GI50,"TK-10; Homo sapiens, Table 2",3.86 µM
same,GI50,"OVCAR-3; Homo sapiens, Table 2",3.96 µM
same,GI50,"786-0; Homo sapiens, Table 2",11.3 µM
same,GI50,"A549/ATCC; Homo sapiens, Table 2",22.3 µM
same,GI50,"HCC-2998; Homo sapiens, Table 2",15.1 µM
same,GI50,"NCI-H460; Homo sapiens, Table 2",21.2 µM
same,GI50,"MCF7; Homo sapiens, Table 2",3.35 µM
same,GI50,"NCI-H226; Homo sapiens, Table 2",12.6 µM
same,GI50,"HS 578T; Homo sapiens, Table 2",23.4 µM
same,GI50,"MOLT-4; Homo sapiens, Table 2",5.54 µM
same,GI50,"PC-3; Homo sapiens, Table 2",14.9 µM
same,GI50,"RPMI-8226; Homo sapiens, Table 2",5.52 µM
